Assay results published in patent US4215215A, “9-Phenyl-nonate traene compounds” (Hoffmann-La Roche Inc., priority 1979, dated 1980).

Key:
in vivo = details: mouse, ip, mice; for LD50 at 24 h: After 1 day; for LD50 at 24 h / LD50 at 240 h / LD50 at 480 h: intraperitoneal, in rape-oil; for LD50 at 240 h: After 10 days; for LD50 at 480 h: After 20 days; for LD50: intraperitoneal administration in rape-oil, no time stated, read-out: acute toxicity [LD50]
papillomas = assay: Papilloma test (tumors induced with dimethylbenzanthracene and croton oil); type: in vivo; details: intraperitoneal, within 2 weeks
From the text: The compounds of formula I are effective for utilizing tumors such as papillomas. In the papilloma test, tumors induced with dimethylbenzanthracene and croton oil regress. The diameters of the papillomae decline within 2 weeks on intraperitoneal administration.

Structure (SMILES)	LD50 at 24 h (in vivo) [mg/kg]	LD50 at 240 h (in vivo) [mg/kg]	LD50 at 480 h (in vivo) [mg/kg]	LD50 (in vivo) [mg/kg]	decline of the diameters of the papillomae (papillomas; 50 mg/kg/week) [%]	decline of the diameters of the papillomae (papillomas; 100 mg/kg/week) [%]	decline of the diameters of the papillomae (papillomas; 25 mg/kg/week) [%]
COc1cc(C)c(C=CC(C)=CC=CC(C)=CC(=O)O)c(C)c1C [Substance A, 9-(4-methoxy-2,3,6-trimethyl-phenyl)-3,7-dimethyl-nona-2,4,6,8-tetraen-1-oic acid]	> 4000	700	700	700	38	69	
CCOC(=O)C=C(C)C=CC=C(C)C=Cc1c(C)cc(OC)c(C)c1C [Substance B, 9-(4-methoxy-2,3,6-trimethyl-phenyl)-3,7-dimethyl-nona-2,4,6,8-tetraen-1-oic acid ethyl ester]	> 4000	1900	1000	1000	63		45
